Laboratory results as given in patent publication US11724980B2, “Quinones having high capacity retention for use as electrolytes in aqueous redox flow batteries” (President and Fellows of Harvard College, priority 2018, dated 2023).
“And” between values parts separate entries of the source, which are not always exact repeats. Equal values may be shown once. Read-outs that look alike come from different tables or passages of the source.

Columns and labels:
Format in all cases: physicochemical
[1] = physchem; conditions: for solubility: thermodynamic from solid
Procedure: Solubility limits of all DBEAQ isomers were measured in their oxidized forms by adding the potassium salt of DBEAQ (prepared by reacting DBEAQ with potassium hydroxide in water) until no further solid could be dissolved. After filtering the mixture through a PTFE 0.45 μm syringe filter, a saturated solution of DBEAQ in KOH was obtained. The saturated solution was then diluted by a known amount, and the concentration was evaluated by UV-Vis (Ocean Optics Flame-S Spectrometer Assembly) at 280 and 364 nm. […]
The solubility limit of DPPEAQ was measured in the oxidized form by adding the potassium salt of DPPEAQ (prepared by reacting DPPEAQ with potassium hydroxide in water) until no further solid could be dissolved. The mixture was adjusted to pH 9. After filtering the mixture through a PTFE 0.45 μm syringe filter, a saturated solution of DPPEAQ at pH 9 was obtained. The saturated solution was then diluted by a known amount while maintaining a pH of 9, and the concentration was evaluated by UV-Vis (Agilent Cary 60 spectrophotometer). The concentration was calculated according to a pre-calibrated absorbance-concentration curve of known concentrations of DPPEAQ at pH 9.

[2] = Cyclic voltammetry on glassy carbon electrode
Procedure: Glassy carbon was used as the working electrode for all three-electrode CV tests. RDE experiments were conducted using a Pine Instruments Modulated Speed Rotator AFMSRCE equipped with a 5 mm diameter glassy carbon working electrode, a Ag/AgCl reference electrode (BASi, pre-soaked in 3 M NaCl solution), and a graphite counter electrode. The electrode was rotated at a specific speed while the voltage was linearly swept from −0.4 to −0.11 V vs. Ag/AgCl (FIG. 4A). […].
A second CV experiment was performed in which 2,6-DBEAQ was dissolved in pH 14 KOH solution at a concentration of 2 mM. CV measurements were plotted in FIG. 4C. The standard equilibrium potential was determined to be −0.49 V vs. SHE. The separation between the peaks in the CV curves was 42 mV, indicating fairly rapid and reversible electrochemical reactions at the surface of the electrodes.

[3] = physchem; conditions: for decomposition: 0.1 M
Procedure: FIGS. 24A-24D. Comparison of the stability of DPPEAQ with respect to alkyl chain cleavage to that of 2,6-DBEAQ at pH 14. ^1H NMR spectra (500 MHz, 10 mM NaCH3SO3 internal standard, δ 2.6 ppm) of (A) DPPEAQ at pH 14; (B) DPPEAQ at pH 14, treated for 5.5 days at 95° C. and 0.1 M concentration; (C) 2,6-DBEAQ at pH 14; (D) 2,6-DBEAQ at pH 14, treated for 5.5 days at 95° C. and 0.1 M concentration. […] The relative integrals and splitting of the peaks in the spectra of DPPEAQ after treatment are consistent with the products of (3-hydroxypropyl)phosphonate cleavage. Samples of DPPEAQ at 0.1 M concentration and pH 14 in both the oxidized and reduced form were stored in FEP bottles and heated in an oven at 65° C. for 2 weeks. The extent of decomposition was determined by ^1H NMR, with peak integrals measured relative to an internal standard of NaCH3SO3 prepared at 10 mM concentration in D2O.
By performing elevated temperature chemical stability studies, we have identified that the cleavage of γ-hydroxybutyrate is involved in the decomposition of the oxidized form of 2,6-DBEAQ (FIGS. 10A-10C and FIGS. 11A-11D), and we have characterized the time course of γ-hydroxybutyrate cleavage at pH 12 and pH 14 and at 0.1 M and 0.5 M concentration (FIG. 12 and FIGS. 13A-13C). […]; these observations are consistent with long redox flow battery lifetime at typical operating cell conditions.
We designed an analogue of 2,6-DBEAQ but with phosphonate-terminated functional groups, DPPEAQ, appearing to deliver both of these desired outcomes.
The differing relative stabilities of DPPEAQ and 2,6-DBEAQ at pH 12 (at 95° C. and 0.1 M concentration), in contrast to the similar extent of their observed decomposition at pH 14, may be due to a competition between multiple decomposition mechanisms that vary in a pH-dependent manner. The concentration of hydroxide ions at pH 14 is tenfold higher than the concentration of either molecule at 0.1 M, as opposed to tenfold lower at pH 12. In particular, we propose a hydroxide-mediated nucleophilic substitution reaction (SNAr or SN2) that dominates the decomposition of both molecules at pH 14. However, at a lower pH of 12, an intramolecular reaction with carboxylate acting as the nucleophile dominates in the decomposition of 2,6-DBEAQ, while no analogous intramolecular reaction of DPPEAQ at pH 12 can take place due to much weaker nucleophilicity of bulked phosphonate compared with carboxylate. The difference in the dominant mechanisms of 2,6-DBEAQ decomposition at pH 12 and 14 that we are proposing is also consistent with the observation that the initial rate of degradation is not 100-fold slower at pH 12 relative to pH 14. […] In addition, the operability at lower pH serves to decrease the corrosion of battery systems and enable the use of less expensive materials.

Compound: O=C([O-])CCCOc1ccc2c(c1)C(=O)c1ccc(OCCCC(=O)[O-])cc1C2=O.[K+].[K+] [2,6-DBEAQ, 4,4′-((9,10-anthraquinone-2,6-diyl)dioxy)dibutyric acid]
- Maximum Solubility ([1]; KOH, pH 12): 600 mM
- solubility ([1]; pH 9, aqueous buffer, pH 9, read-out: solubility): < 0.035 M
- solubility ([1]; pH 12, aqueous buffer, KOH, pH 12, read-out: Maximum Solubility): > 0.5 M
- solubility ([1]; pH 12, aqueous buffer, pH 12 (value in brackets), read-out: Solubility (M) at pH 14 (pH 12)): 0.6 M
- solubility ([1]; pH 14, aqueous buffer, KOH, pH 14, read-out: Maximum Solubility): > 1 M
- solubility ([1]; pH 14, aqueous buffer, pH 14 (value outside brackets), read-out: Solubility (M) at pH 14 (pH 12)): 1.1 M
- redox potential higher than that of 2,6-DHAQ [2]: ~200 mV
- pH above which the potential is pH-independent ([2]; Pourbaix diagram): 11.5 and ~11.5
- Pourbaix diagram slope ([2]; fit to data below pH 12): −35 mV/pH
- separation between the peaks in the CV curves ([2]; pH 14 KOH, 2 mM): 42 mV
- standard equilibrium potential ([2]; pH 14 KOH, 2 mM): −0.49 V vs. SHE
- half-life ([3]; buffer, room temperature, pH 14, 0.1 M, oxidized form, from elevated temperature studies): ~1830 days
- decomposition ([3]; pH 12, 6 days at 95° C.): 15%
- decomposition ([3]; pH 14, 5.5 days at 95° C.): 45%
- stability of the reduced form ([3]; temperatures up to 95° C.): quite stable
